In article PMC12191596, “Gene Expression and Enzyme Kinetics of Polyphenol Oxidases in Strawberry and Their Possible Involvement in Enzymatic Browning Reactions in Strawberry Nectar” (Foods, 2025) one finds Km data, which are given here for 7 compounds.

The test system of test [1] is T1, PPO1 (FaPPO 1).
T1 construct: latent PPO, transit peptide removed, C-terminal shielding domain kept, N-terminal 6xHis tag, pET28, E. coli BL21(DE3)
As to the kind of experiment: spectrophotometry, […] nm. The class given is biochemical. The following applies: 50 mM Tris-HCl pH 7, 0.7 mM SDS, 25 °C.

In test [2] the test system is T2, PPO2 (FaPPO 2).
T2 construct: latent PPO, transit peptide removed, C-terminal shielding domain kept, N-terminal 6xHis tag, non-codon-optimized cDNA, pET28, E. coli BL21(DE3)
As to the kind of experiment: spectrophotometry, […] nm. The class given is biochemical, Fragaria vesca. As to conditions: 50 mM Tris-HCl pH 7, 0.7 mM SDS, 25 °C.

For test [3], the system named is PPO4 (FaPPO 4). Briefly: spectrophotometry, […] nm. The class given is biochemical, Fragaria vesca. As to conditions: 50 mM Tris-HCl pH 7, 1 mM SDS, 25 °C.
In test [4] the test system is T2, PPO2 (FaPPO 2). As to the kind of experiment: spectrophotometry, […] nm. Format: biochemical, Fragaria vesca. As to conditions: 50 mM Tris-HCl pH 7, 0.7 mM SDS, 25 °C. The source holds these as a separate data set.
Test [5] deals with PPO4 (FaPPO 4). As to the kind of experiment: spectrophotometry, […] nm. Format: biochemical, Fragaria vesca. The following applies: 50 mM Tris-HCl pH 7, 1 mM SDS, 25 °C. This is another data set of the same source.
Test [6] relates to T1, PPO1 (FaPPO 1). Briefly: spectrophotometry, […] nm. The class given is biochemical. As to conditions: 50 mM Tris-HCl pH 7, 0.7 mM SDS, 25 °C. This is another data set of the same source.
For test [7], the system named is T1, PPO1 (FaPPO 1). As to the kind of experiment: spectrophotometry, […] nm. The class given is biochemical. As to conditions: 50 mM Tris-HCl pH 7, 0.7 mM SDS, 25 °C. The source holds these as a separate data set.
Test [8] relates to T2, PPO2 (FaPPO 2). Briefly: spectrophotometry, […] nm. The following applies: 50 mM Tris-HCl pH 7, 0.7 mM SDS, 25 °C. Format: biochemical, Fragaria vesca. The source holds these as a separate data set.
The subject of test [9] is PPO4 (FaPPO 4). Briefly: spectrophotometry, […] nm. The class given is biochemical, Fragaria vesca. As to conditions: 50 mM Tris-HCl pH 7, 1 mM SDS, 25 °C. This is another data set of the same source.
Test [10] concerns T2, PPO2 (FaPPO 2). Briefly: spectrophotometry, […] nm. Format: biochemical, Fragaria vesca. The following applies: 50 mM Tris-HCl pH 7, 0.7 mM SDS, 25 °C. The source holds these as a separate data set.
Test [11] concerns T1, PPO1 (FaPPO 1). Briefly: spectrophotometry, […] nm. Format: biochemical. As to conditions: 50 mM Tris-HCl pH 7, 0.7 mM SDS, 25 °C. This is another data set of the same source.
Test [12] relates to PPO4 (FaPPO 4). As to the kind of experiment: spectrophotometry, […] nm. The class given is biochemical, Fragaria vesca. As to conditions: 50 mM Tris-HCl pH 7, 1 mM SDS, 25 °C. The source holds these as a separate data set.
Test [13] deals with T2, PPO2 (FaPPO 2). As to the kind of experiment: spectrophotometry, […] nm. The following applies: 50 mM Tris-HCl pH 7, 0.7 mM SDS, 25 °C. Format: biochemical, Fragaria vesca. The source holds these as a separate data set.
Test [14] has as its system T1, PPO1 (FaPPO 1). As to the kind of experiment: spectrophotometry, […] nm. Format: biochemical. As to conditions: 50 mM Tris-HCl pH 7, 0.7 mM SDS, 25 °C. The source holds these as a separate data set.
For test [15], the system named is PPO4 (FaPPO 4). Briefly: spectrophotometry, […] nm. The following applies: 50 mM Tris-HCl pH 7, 1 mM SDS, 25 °C. Format: biochemical, Fragaria vesca. This is another data set of the same source.
The subject of test [16] is T1, PPO1 (FaPPO 1). Briefly: spectrophotometry, […] nm, Hill fit. The following applies: 50 mM Tris-HCl pH 7, 0.7 mM SDS, 25 °C, cooperative. Format: biochemical.
In test [17] the test system is T2, PPO2 (FaPPO 2). As to the kind of experiment: spectrophotometry, […] nm, Hill fit. Format: biochemical, Fragaria vesca. As to conditions: 50 mM Tris-HCl pH 7, 0.7 mM SDS, 25 °C, cooperative.

Broadly, the Km is the concentration of substrate that gives half-maximal velocity. With `Oc1ccccc1O` [Catechol], the results for the Km in the test with PPO1 (FaPPO 1) [1], in the test on PPO2 (FaPPO 2) [2] and in the test with PPO4 (FaPPO 4) [3] were 27000 ± 2000 µM, 7500 ± 600 µM and 39000 ± 12000 µM, respectively.

`Oc1cc(O)c2c(c1)O[C@H](c1ccc(O)c(O)c1)[C@@H](O)C2` [Catechin]: the results for the Michaelis constant (Km) in the test on PPO2 (FaPPO 2) [4], in the test on PPO4 (FaPPO 4) [5] and with PPO1 (FaPPO 1) [6] were 190 ± 40 µM, 870 ± 80 µM and 120 ± 30 µM, respectively.

For the compound `NCCc1ccc(O)cc1` [Tyramine], the Michaelis constant (Km) came out at 500 ± 100 µM in the test on PPO1 (FaPPO 1) [7], 600 ± 100 µM with PPO2 (FaPPO 2) [8] and 1300 ± 100 µM in the test on PPO4 (FaPPO 4) [9].

Consider `NCCc1ccc(O)c(O)c1` [Dopamine], for which the Km amounted to 950 ± 120 µM in the test on PPO2 (FaPPO 2) [10], 600 ± 100 µM in the test on PPO1 (FaPPO 1) [11] and 990 ± 110 µM in the test with PPO4 (FaPPO 4) [12].

`N[C@@H](Cc1ccc(O)c(O)c1)C(=O)O` [L-DOPA]: the Km in the test with PPO2 (FaPPO 2) [13] worked out at 5700 ± 1900 µM; in the test on PPO1 (FaPPO 1) [14], 2000 ± 400 µM; in the test with PPO4 (FaPPO 4) [15] it was 3200 ± 1600 µM.

Take `O=C(CCc1ccc(O)cc1)c1c(O)cc(O)cc1O` [Phloretin]: the results for the Km in the test on PPO1 (FaPPO 1) [16] and in the test on PPO2 (FaPPO 2) [17] were 82 ± 4 µM and 600 ± 400 µM, respectively.

On to `O=C(/C=C/c1ccc(O)c(O)c1)O[C@@H]1C[C@](O)(C(=O)O)C[C@@H](O)[C@H]1O` [Chlorogenic acid], for which the values for the Km in the test with PPO1 (FaPPO 1) [1], in the test with PPO2 (FaPPO 2) [2] and in the test on PPO4 (FaPPO 4) [3] were 2700 ± 400 µM, 1300 ± 200 µM and 1300 ± 200 µM, respectively.
